Reference: PubChem BioAssay (NCI)
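Method: 48-hour compound exposure of cells in 96-well plates, five concentrations, linear interpolation of endpoints. GI50 marks 50% less growth. The concentration for full growth arrest is given as TGI.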

Experiments:
Experiment in all cases: NCI anticancer screen, dose series, 48 h
ACHN renal = tested on: ACHN renal
HCT-116 colon = tested on: HCT-116 colon
M14 melanoma = tested on: M14 melanoma
NCI-H226 lung = tested on: NCI-H226 lung
OVCAR-3 ovarian = tested on: OVCAR-3 ovarian
SF-268 CNS = tested on: SF-268 CNS
SK-MEL-2 melanoma = tested on: SK-MEL-2 melanoma
SW-620 colon = tested on: SW-620 colon
UACC-257 melanoma = tested on: UACC-257 melanoma
UO-31 renal = tested on: UO-31 renal

Row | SMILES | TGI (ACHN renal) | TGI (HCT-116 colon) | TGI (M14 melanoma) | TGI (NCI-H226 lung) | TGI (OVCAR-3 ovarian) | TGI (SF-268 CNS) | TGI (SK-MEL-2 melanoma) | TGI (SW-620 colon) | TGI (UACC-257 melanoma) | TGI (UO-31 renal) | GI50 (ACHN renal) | GI50 (HCT-116 colon) | GI50 (M14 melanoma) | GI50 (NCI-H226 lung) | GI50 (OVCAR-3 ovarian) | GI50 (SF-268 CNS) | GI50 (SK-MEL-2 melanoma) | GI50 (SW-620 colon) | GI50 (UACC-257 melanoma) | GI50 (UO-31 renal)
1 | C=C1C(=O)OC2CC(C)C3C=CC(=O)C3CC12 (stereo not given) | 8.21 µM | 2.7 µM | 3.46 µM | 8.21 µM | 13.6 µM | 7.4 µM | 4.49 µM | 3.69 µM | 4.9 µM | 8.41 µM |  |  |  |  |  |  |  |  |  | 
2 | NS(=O)(=O)c1ccc(NC(=O)c2cccc3cc4ccccc4nc23)cc1 | > 100 µM | > 100 µM | > 100 µM | 98.7 µM | > 100 µM | > 100 µM | > 100 µM | > 100 µM | > 100 µM | > 100 µM |  |  |  |  |  |  |  |  |  | 
3 | Cn1c(=O)c(Oc2ccccc2)cc2cnc(NC3CCOCC3)nc21 | > 25 µM | > 25 µM | > 25 µM | > 25 µM | > 25 µM | > 25 µM | > 25 µM | > 25 µM | > 25 µM | > 25 µM | > 25 µM | > 25000 nM | > 25000 nM | > 25 µM | > 25000 nM | > 25 µM | > 25 µM | > 25000 nM | > 25 µM | > 25 µM
4 | CS(=O)(=O)OCCN(CCOS(C)(=O)=O)c1ccc(C=O)cc1 | 2.69 µM | > 100 µM | 30.4 µM | 13.4 µM | 28.5 µM | 43.5 µM | 42.8 µM | 68.8 µM | 39.2 µM | 3.09 µM |  |  |  |  |  |  |  |  |  | 
5 | COc1ccc2c(c1)C1(C(=O)N2)C(C#N)=C(c2ccccc2)Nc2c1c(-c1ccccc1)nn2-c1ccccc1 (stereo not given) | 19.4 µM | 3.02 µM | 7.32 µM | 16.4 µM | 3.39 µM | 17.9 µM | 21.8 µM | 4.23 µM | 31.5 µM | 30.1 µM | 6.16 µM | 1660 nM | 2440 nM | 3.8 µM | 1950 nM | 4.9 µM | 6.47 µM | 1980 nM | 16 µM | 15.8 µM
6 | O=C1CS/C(=N\S(=O)(=O)c2ccc(N3N=C4c5ccccc5CC4C3c3ccc(Cl)cc3)cc2)N1c1ccccc1 (stereo not given) | 66.5 µM | > 100 µM | > 100 µM | > 100 µM | > 100 µM | 84.8 µM | > 100 µM | > 100 µM | > 100 µM | > 100 µM | 27.7 µM | 38700 nM | 59400 nM | 45.1 µM | 48500 nM | 22.7 µM | > 100 µM | 37400 nM | 92.9 µM | 29.1 µM
7 | COc1ccc(N(C)c2c3ccccc3nc3[nH]c4ccccc4c23)cc1 | 2.16 µM | 1.01 µM | 1.67 µM | 3.99 µM | 1.16 µM | 2.27 µM | 26.1 µM | 26.4 µM | 10 µM | 22.2 µM | 0.558 µM | 279 nM | 837 nM | 0.9 µM | 261 nM | 0.373 µM | 6.16 µM | 582 nM | 3.48 µM | 2.83 µM
8 | C1COCCOCCOCCOCCO1.CC(=O)[CH-]C(C)=O.CC(=O)[CH-]C(C)=O.CC(=O)[CH-]C(C)=O.[V] | 44.1 µM | 27.3 µM | 21 µM | > 100 µM | 32.3 µM | 65.8 µM | 26 µM | > 100 µM | 25.3 µM | 61.4 µM | 12 µM | 13400 nM | 5590 nM | 37.1 µM | 13700 nM | 20.6 µM | 10.8 µM | 22900 nM | 12.1 µM | 32.5 µM
9 | CNCCCNCCCN1C(=O)c2ccc3c4c(ccc(c24)C1=O)C(=O)N(CCCNCc1ccccc1OC)C3=O | 3.96 µM | 1.21 µM | 2.79 µM | 4.63 µM | 9.23 µM | 9.02 µM | 3.97 µM | 5.12 µM | 2.72 µM | 27.5 µM | 0.5 µM | 270 nM | 1320 nM | 1.42 µM | 1370 nM | 1.03 µM | 1.75 µM | 365 nM | 1.35 µM | 5.88 µM
